Values joined by “and” are separate entries in the source; they are usually repeats but may differ in a detail not shown here. Equal entries are not always repeated.
Columns and labels:
Assay type in all cases: cell-based
320 non-olfactory GPCRs [1] = target: 320 non-olfactory GPCRs (Homo sapiens, UniProt Q15743); conditions: receptor GPR68 no V2 Tail; replicate values, Fig_4g
320 non-olfactory GPCRs [2] = target: 320 non-olfactory GPCRs (Homo sapiens, UniProt P08172)
320 non-olfactory GPCRs [3] = target: T1, 320 non-olfactory GPCRs (Homo sapiens, UniProt P28336); conditions: receptor NMBR; replicate values, Fig_4g
T1 construct: expressed in transfected cells; host or cells: HTLA cells

320 non-olfactory GPCRs [4] = target: 320 non-olfactory GPCRs (Homo sapiens, UniProt P47211)
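Throughout, for Fold of Basal: compound tested at 1 µM final concentration.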
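Throughout, for GPCRome agonism screen response: fold over basal response of each receptor without drug.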

Sequence of 320 non-olfactory GPCRs (Homo sapiens, UniProt P08172) (P08172 whole entry): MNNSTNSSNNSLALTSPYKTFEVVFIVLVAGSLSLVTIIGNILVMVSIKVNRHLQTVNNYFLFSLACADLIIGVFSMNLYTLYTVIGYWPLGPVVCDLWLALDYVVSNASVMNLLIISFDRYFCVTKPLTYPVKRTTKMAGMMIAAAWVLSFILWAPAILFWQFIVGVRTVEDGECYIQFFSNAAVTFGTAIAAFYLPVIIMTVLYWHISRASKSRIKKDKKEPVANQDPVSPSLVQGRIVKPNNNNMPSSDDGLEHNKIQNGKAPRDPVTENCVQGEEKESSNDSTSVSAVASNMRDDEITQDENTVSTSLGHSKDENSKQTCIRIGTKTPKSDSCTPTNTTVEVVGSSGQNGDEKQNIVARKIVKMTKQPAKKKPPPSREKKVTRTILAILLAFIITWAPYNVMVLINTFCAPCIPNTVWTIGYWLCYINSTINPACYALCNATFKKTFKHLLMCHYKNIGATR
Sequence of 320 non-olfactory GPCRs (Homo sapiens, UniProt P47211) (P47211 whole entry): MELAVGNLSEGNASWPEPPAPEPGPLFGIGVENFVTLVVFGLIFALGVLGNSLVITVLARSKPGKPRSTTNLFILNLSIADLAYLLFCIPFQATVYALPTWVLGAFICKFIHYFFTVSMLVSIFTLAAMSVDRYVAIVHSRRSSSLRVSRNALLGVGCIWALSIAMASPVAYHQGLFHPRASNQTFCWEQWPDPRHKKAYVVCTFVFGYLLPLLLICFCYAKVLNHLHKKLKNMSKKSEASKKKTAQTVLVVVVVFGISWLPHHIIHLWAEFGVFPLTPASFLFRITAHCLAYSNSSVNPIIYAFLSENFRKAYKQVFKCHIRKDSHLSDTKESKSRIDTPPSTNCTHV
Sequence of 320 non-olfactory GPCRs (Homo sapiens, UniProt Q15743) (Q15743 whole entry): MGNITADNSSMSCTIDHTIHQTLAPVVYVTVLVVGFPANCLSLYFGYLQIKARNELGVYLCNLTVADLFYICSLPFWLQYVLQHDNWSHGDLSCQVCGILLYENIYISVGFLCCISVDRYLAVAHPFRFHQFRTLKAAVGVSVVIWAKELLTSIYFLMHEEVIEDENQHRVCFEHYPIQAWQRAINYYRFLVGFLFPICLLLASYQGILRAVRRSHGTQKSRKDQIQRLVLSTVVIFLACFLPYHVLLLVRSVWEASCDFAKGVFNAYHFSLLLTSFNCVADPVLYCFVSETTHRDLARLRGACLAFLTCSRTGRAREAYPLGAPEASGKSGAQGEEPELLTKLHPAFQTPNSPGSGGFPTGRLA
T1 sequence (P28336 whole entry): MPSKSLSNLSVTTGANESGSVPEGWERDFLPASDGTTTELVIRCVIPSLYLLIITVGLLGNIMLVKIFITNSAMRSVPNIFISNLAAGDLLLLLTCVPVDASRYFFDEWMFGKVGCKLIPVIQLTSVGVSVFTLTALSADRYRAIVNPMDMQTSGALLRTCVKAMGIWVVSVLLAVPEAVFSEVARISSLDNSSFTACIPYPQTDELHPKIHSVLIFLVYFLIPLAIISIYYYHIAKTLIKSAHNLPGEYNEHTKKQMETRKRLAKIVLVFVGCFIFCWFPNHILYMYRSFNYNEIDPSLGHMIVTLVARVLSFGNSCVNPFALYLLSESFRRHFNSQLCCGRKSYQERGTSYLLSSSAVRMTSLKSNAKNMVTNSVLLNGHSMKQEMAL

CCOc1cccc2cc(C(C)NCC3(O)CCCCC3)oc12 (stereo not shown) [O4LE6]
GPCRome agonism screen response (320 non-olfactory GPCRs [1]): 1.945 and 0.5249 and 1.001 and 1.345 | Fold of Basal (320 non-olfactory GPCRs [2]): 1.524 and 1.414 and 0.8585 and 0.8596 | GPCRome agonism screen response (320 non-olfactory GPCRs [3]): 0.2359 and 0.9261 and 0.9727 and 0.7093 | Fold of Basal (320 non-olfactory GPCRs [4]): 0.9505 and 0.7559 and 1.028 and 0.7017
